ChEMBL document CHEMBL6121019, “Design, synthesis and biological evaluation of bisnoralcohol derivatives as novel IRF4 inhibitors for the treatment of multiple myeloma” (Eur J Med Chem, 2025)

Legend:
[1] = target: T1, Interferon regulatory factor 4 (Homo sapiens, UniProt Q15306); assay: Inhibition of IRF4 (unknown origin) incubated for 1 hr by fluorescence polarization assay
T1 sequence (Q15306 whole entry): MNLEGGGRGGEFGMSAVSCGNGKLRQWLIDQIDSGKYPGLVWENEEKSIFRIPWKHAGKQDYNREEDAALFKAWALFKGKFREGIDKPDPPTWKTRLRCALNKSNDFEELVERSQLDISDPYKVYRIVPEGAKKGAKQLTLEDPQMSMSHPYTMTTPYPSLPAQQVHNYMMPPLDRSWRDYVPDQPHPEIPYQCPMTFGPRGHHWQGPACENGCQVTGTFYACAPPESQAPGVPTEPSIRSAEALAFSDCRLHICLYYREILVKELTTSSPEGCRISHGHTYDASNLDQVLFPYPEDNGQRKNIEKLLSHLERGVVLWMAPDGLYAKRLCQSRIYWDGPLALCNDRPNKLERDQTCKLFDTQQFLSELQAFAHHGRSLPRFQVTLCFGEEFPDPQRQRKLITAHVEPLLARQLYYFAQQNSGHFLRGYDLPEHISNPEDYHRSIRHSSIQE

[2] = tested on: NCI-H929; assay: Antiproliferative activity against human NCI-H929 cells assessed as inhibition of cell viability measured after 72 hrs by MTS assay; format: functional, cell-based; settings: NCI-H929, 72 h
[3] = Selectivity ratio IC50 for human RPMI-8226 cells to IC50 for human NCI-H929 cells; format: toxicity
[4] = Antiproliferative activity against human MM1.R cells assessed as inhibition of cell viability measured after 72 hrs by MTS assay; format: functional, cell-based; settings: MM.1R
[5] = Antiproliferative activity against human HAF cells assessed as inhibition of cell viability measured after 72 hrs by MTS assay; format: toxicity, cell-based
[6] = tested on: RPMI-8226; assay: Antiproliferative activity against human RPMI-8226 cells assessed as inhibition of cell viability measured after 72 hrs by MTS assay; format: functional, cell-based; settings: RPMI-8226, 72 h
[7] = Antiproliferative activity against human HaCaT cells assessed as inhibition of cell viability measured after 72 hrs by MTS assay; format: toxicity, cell-based
[8] = Selectivity ratio IC50 for human RPMI-8226 cells to IC50 for human MM1.R cells; format: toxicity

| Compound | IC50 [1] | further results |
| --- | --- | --- |
| CCCNC(=O)[C@@H](C)[C@H]1CC[C@H]2[C@@H]3C(=O)C=C4C(C)(C)C(=O)C(C#N)=C[C@]4(C)[C@H]3CC[C@]12C | > 20 µM | – |
| CCOc1ccc(NC(=O)[C@@H](C)[C@H]2CC[C@H]3[C@@H]4C(=O)C=C5C(C)(C)C(=O)C(C#N)=C[C@]5(C)[C@H]4CC[C@]23C)cc1 | 10.8 µM | – |
| COc1ccccc1NC(=O)[C@@H](C)[C@H]1CC[C@H]2[C@@H]3C(=O)C=C4C(C)(C)C(=O)C(C#N)=C[C@]4(C)[C@H]3CC[C@]12C | 10.4 µM | – |
| CCCCOc1ccc(NC(=O)[C@@H](C)[C@H]2CC[C@H]3[C@@H]4C(=O)C=C5C(C)(C)C(=O)C(C#N)=C[C@]5(C)[C@H]4CC[C@]23C)cc1 | 16.6 µM | – |
| C[C@H](C(=O)Nc1cncnc1)[C@H]1CC[C@H]2[C@@H]3C(=O)C=C4C(C)(C)C(=O)C(C#N)=C[C@]4(C)[C@H]3CC[C@]12C | 9.65 µM | – |
| C[C@H](C(=O)OC1CCCCC1)[C@H]1CC[C@H]2[C@@H]3C(=O)C=C4C(C)(C)C(=O)C(C#N)=C[C@]4(C)[C@H]3CC[C@]12C | > 20 µM | – |
| C[C@H](C(=O)Nc1ccccc1O)[C@H]1CC[C@H]2[C@@H]3C(=O)C=C4C(C)(C)C(=O)C(C#N)=C[C@]4(C)[C@H]3CC[C@]12C | 15 µM | – |
| C[C@H](C(=O)n1cccn1)[C@H]1CC[C@H]2[C@@H]3C(=O)C=C4C(C)(C)C(=O)C(C#N)=C[C@]4(C)[C@H]3CC[C@]12C | 3.79 µM | IC50 [2]: 0.06 µM; Ratio IC50 [3]: 5.7; IC50 [4]: 0.24 µM; IC50 at 72 h [5]: > 100 µM; IC50 [6]: 0.34 µM; IC50 at 72 h [7]: > 100 µM; Ratio IC50 [8]: 1.4 |
| C[C@H](C(=O)O)[C@H]1CC[C@H]2[C@@H]3C(=O)C=C4C(C)(C)C(=O)C=C[C@]4(C)[C@H]3CC[C@]12C | > 20 µM | – |
| C[C@H](C(=O)OC1CCCC1)[C@H]1CC[C@H]2[C@@H]3C(=O)C=C4C(C)(C)C(=O)C(C#N)=C[C@]4(C)[C@H]3CC[C@]12C | > 20 µM | – |
| C[C@H](C(=O)O)[C@H]1CC[C@H]2[C@@H]3C(=O)C=C4C(C)(C)C(=O)C(C#N)=C[C@]4(C)[C@H]3CC[C@]12C | 13.5 µM | IC50 [2]: 2.63 µM; Ratio IC50 [3]: 1.6; IC50 [4]: 3.16 µM; IC50 at 72 h [5]: > 100 µM; IC50 [6]: 4.25 µM; IC50 at 72 h [7]: > 100 µM; Ratio IC50 [8]: 1.2 |
| COc1cc(NC(=O)[C@@H](C)[C@H]2CC[C@H]3[C@@H]4C(=O)C=C5C(C)(C)C(=O)C(C#N)=C[C@]5(C)[C@H]4CC[C@]23C)cc(OC)c1 | 7.06 µM | – |
| C[C@H](C(=O)O)[C@H]1CC[C@H]2[C@@H]3CC=C4C(C)(C)C(=O)C(C#N)=C[C@]4(C)[C@H]3CC[C@]12C | > 20 µM | – |
| C[C@H](C(=O)Nc1ccc2nccnc2c1)[C@H]1CC[C@H]2[C@@H]3C(=O)C=C4C(C)(C)C(=O)C(C#N)=C[C@]4(C)[C@H]3CC[C@]12C | 5.62 µM | – |
| C[C@H](C(=O)Nc1nccs1)[C@H]1CC[C@H]2[C@@H]3C(=O)C=C4C(C)(C)C(=O)C(C#N)=C[C@]4(C)[C@H]3CC[C@]12C | 14.2 µM | – |
| COc1ccc(NC(=O)CCC[C@@H](C)[C@H]2CC[C@H]3[C@@H]4C(=O)C=C5C(C)(C)C(=O)C(C#N)=C[C@]5(C)[C@H]4CC[C@]23C)cc1 | > 20 µM | – |
| C[C@H](C(=O)Nc1ccc2ncsc2c1)[C@H]1CC[C@H]2[C@@H]3C(=O)C=C4C(C)(C)C(=O)C(C#N)=C[C@]4(C)[C@H]3CC[C@]12C | 12.1 µM | – |
| C[C@H](C(=O)Nc1ccc(O)cc1)[C@H]1CC[C@H]2[C@@H]3C(=O)C=C4C(C)(C)C(=O)C(C#N)=C[C@]4(C)[C@H]3CC[C@]12C | 3.52 µM | IC50 [2]: 0.49 µM; Ratio IC50 [3]: 5; IC50 [4]: 0.57 µM; IC50 at 72 h [5]: > 100 µM; IC50 [6]: 2.45 µM; IC50 at 72 h [7]: > 100 µM; Ratio IC50 [8]: 4.3 |
| C[C@H](CO)[C@H]1CC[C@H]2[C@@H]3C(=O)C=C4C(C)(C)C(=O)C(C#N)=C[C@]4(C)[C@H]3CC[C@]12C | > 20 µM | – |
| C[C@H](C(=O)Oc1ccc(C(F)(F)F)cc1)[C@H]1CC[C@H]2[C@@H]3C(=O)C=C4C(C)(C)C(=O)C(C#N)=C[C@]4(C)[C@H]3CC[C@]12C | > 20 µM | – |
| COc1ccc(NC(=O)CC[C@@H](C)[C@H]2CC[C@H]3[C@@H]4C(=O)C=C5C(C)(C)C(=O)C(C#N)=C[C@]5(C)[C@H]4CC[C@]23C)cc1 | 17.9 µM | – |
| COC(=O)[C@@H](C)[C@H]1CC[C@H]2[C@@H]3C(=O)C=C4C(C)(C)C(=O)C(C#N)=C[C@]4(C)[C@H]3CC[C@]12C | > 20 µM | – |
| COc1ccc(NC(=O)C[C@@H](C)[C@H]2CC[C@H]3[C@@H]4C(=O)C=C5C(C)(C)C(=O)C(C#N)=C[C@]5(C)[C@H]4CC[C@]23C)cc1 | 15.1 µM | – |

| Compound | IC50 [1] | further results |
| --- | --- | --- |
| COc1cccc(NC(=O)[C@@H](C)[C@H]2CC[C@H]3[C@@H]4C(=O)C=C5C(C)(C)C(=O)C(C#N)=C[C@]5(C)[C@H]4CC[C@]23C)c1 | 5.43 µM | – |
| CCCOC(=O)[C@@H](C)[C@H]1CC[C@H]2[C@@H]3C(=O)C=C4C(C)(C)C(=O)C(C#N)=C[C@]4(C)[C@H]3CC[C@]12C | > 20 µM | – |
| C[C@H](C(=O)Nc1cccnc1)[C@H]1CC[C@H]2[C@@H]3C(=O)C=C4C(C)(C)C(=O)C(C#N)=C[C@]4(C)[C@H]3CC[C@]12C | 5.05 µM | – |
| C[C@H](C(=O)Oc1ccccc1)[C@H]1CC[C@H]2[C@@H]3C(=O)C=C4C(C)(C)C(=O)C(C#N)=C[C@]4(C)[C@H]3CC[C@]12C | 8.1 µM | – |
| C[C@H](C(=O)NC1CCCC1)[C@H]1CC[C@H]2[C@@H]3C(=O)C=C4C(C)(C)C(=O)C(C#N)=C[C@]4(C)[C@H]3CC[C@]12C | > 20 µM | – |
| CCNC(=O)[C@@H](C)[C@H]1CC[C@H]2[C@@H]3C(=O)C=C4C(C)(C)C(=O)C(C#N)=C[C@]4(C)[C@H]3CC[C@]12C | > 20 µM | – |
| C#CCNC(=O)[C@@H](C)[C@H]1CC[C@H]2[C@@H]3C(=O)C=C4C(C)(C)C(=O)C(C#N)=C[C@]4(C)[C@H]3CC[C@]12C | > 20 µM | – |
| C[C@H](C(=O)n1ccnc1)[C@H]1CC[C@H]2[C@@H]3C(=O)C=C4C(C)(C)C(=O)C(C#N)=C[C@]4(C)[C@H]3CC[C@]12C | 3.88 µM | IC50 [2]: 2.57 µM; Ratio IC50 [3]: 3; IC50 [4]: 4.46 µM; IC50 at 72 h [5]: > 100 µM; IC50 [6]: 7.65 µM; IC50 at 72 h [7]: > 100 µM; Ratio IC50 [8]: 1.7 |
| C[C@H](C(=O)Nc1ccc(C(F)(F)F)cc1)[C@H]1CC[C@H]2[C@@H]3C(=O)C=C4C(C)(C)C(=O)C(C#N)=C[C@]4(C)[C@H]3CC[C@]12C | > 20 µM | – |
| C[C@H](C(=O)Nc1ccc2cc[nH]c2c1)[C@H]1CC[C@H]2[C@@H]3C(=O)C=C4C(C)(C)C(=O)C(C#N)=C[C@]4(C)[C@H]3CC[C@]12C | 11.6 µM | – |
| C=CCNC(=O)[C@@H](C)[C@H]1CC[C@H]2[C@@H]3C(=O)C=C4C(C)(C)C(=O)C(C#N)=C[C@]4(C)[C@H]3CC[C@]12C | > 20 µM | – |
| COc1ccc(NC(=O)[C@@H](C)[C@H]2CC[C@H]3[C@@H]4C(=O)C=C5C(C)(C)C(=O)C(C#N)=C[C@]5(C)[C@H]4CC[C@]23C)cc1OC | 18.8 µM | – |
| CCCCc1ccc(NC(=O)[C@@H](C)[C@H]2CC[C@H]3[C@@H]4C(=O)C=C5C(C)(C)C(=O)C(C#N)=C[C@]5(C)[C@H]4CC[C@]23C)cc1 | > 20 µM | – |
| CCOC(=O)[C@@H](C)[C@H]1CC[C@H]2[C@@H]3C(=O)C=C4C(C)(C)C(=O)C(C#N)=C[C@]4(C)[C@H]3CC[C@]12C | > 20 µM | – |
| CNC(=O)[C@@H](C)[C@H]1CC[C@H]2[C@@H]3C(=O)C=C4C(C)(C)C(=O)C(C#N)=C[C@]4(C)[C@H]3CC[C@]12C | 16.4 µM | – |
| C[C@H](C(=O)Nc1ccc(Cl)cc1)[C@H]1CC[C@H]2[C@@H]3C(=O)C=C4C(C)(C)C(=O)C(C#N)=C[C@]4(C)[C@H]3CC[C@]12C | > 20 µM | – |
| C[C@H](C(=O)Nc1ncco1)[C@H]1CC[C@H]2[C@@H]3C(=O)C=C4C(C)(C)C(=O)C(C#N)=C[C@]4(C)[C@H]3CC[C@]12C | 7.61 µM | – |
| CCc1ccc(NC(=O)[C@@H](C)[C@H]2CC[C@H]3[C@@H]4C(=O)C=C5C(C)(C)C(=O)C(C#N)=C[C@]5(C)[C@H]4CC[C@]23C)cc1 | 12.8 µM | – |
| C[C@H](C(=O)Oc1ccc(Cl)cc1)[C@H]1CC[C@H]2[C@@H]3C(=O)C=C4C(C)(C)C(=O)C(C#N)=C[C@]4(C)[C@H]3CC[C@]12C | > 20 µM | – |
| C[C@H](C(=O)NC1CCCCC1)[C@H]1CC[C@H]2[C@@H]3C(=O)C=C4C(C)(C)C(=O)C(C#N)=C[C@]4(C)[C@H]3CC[C@]12C | 16.4 µM | – |
| COc1ccc(OC(=O)[C@@H](C)[C@H]2CC[C@H]3[C@@H]4C(=O)C=C5C(C)(C)C(=O)C(C#N)=C[C@]5(C)[C@H]4CC[C@]23C)cc1 | 9.37 µM | – |
| COc1cc(NC(=O)[C@@H](C)[C@H]2CC[C@H]3[C@@H]4C(=O)C=C5C(C)(C)C(=O)C(C#N)=C[C@]5(C)[C@H]4CC[C@]23C)cc(OC)c1OC | 6.95 µM | – |
| C[C@H](CO)[C@H]1CC[C@H]2[C@@H]3CCC4=CC(=O)CC[C@]4(C)[C@H]3CC[C@]12C | > 20 µM | – |
